Paper PMC6218659, “Structures of DPAGT1 Explain Glycosylation Disease Mechanisms and Advance TB Antibiotic Design” (Cell, 2018)
≈ marks a conversion by molar mass, not a printed value. Read-outs that look alike come from different tables or passages of the source.

Experiments:
Mtb H37Rv ATCC27294 = assay: Minimum inhibitory concentrations testing against Mtb; assay type: cell-based, Mycobacterium tuberculosis; details: for MIC: Mycobacterium tuberculosis, 168 h; for Relative Therapeutic Index (RTI), Mtb H37RV a / Relative Therapeutic Index (RTI), Mtb H37RV b: minimal lethal dose / MIC, 800 μg mL-1 used for >400; for Relative Therapeutic Index (RTI), Mtb H37RV a: 7H9/ADC/Tw; for Relative Therapeutic Index (RTI), Mtb H37RV b: GAST/Fe
[1] = tested on: Mtb-infected J774A.1 macrophages; assay: Efficacy against Mtb growing in infected macrophages; details: J774A.1 macrophages treated 3 or 7 days
Raji cells = assay: Cell proliferation assay (MTS); assay type: cell-based, human; details: 24 hrs
Description: (§1) In sterile 96-well plate, each well was seeded with ∼1x10^5 cells. The cells are then grown confluent overnight in 100 μl DMEM with 10% FBS. The medium is replenished with DMEM with 2% FBS and added vehicle control or test substance the next day. For test substance in methanol, stock was added to 25 μl of DMEM with 2% FBS or PBS and placed in the laminar flow hood to let the methanol evaporate (about 1-3 hrs). Once the methanol has evaporated, DMEM with 2% FBS was added to final volume of 100 μl of desired test concentration. […] Cells are grown for additional 24 hrs. The cell viability was determined by using Promega CellTiter 96^© AQueous One Solution Cell Proliferation Assay (3-(4,5-dimethylthiazol-2-yl)-5-(3-carboxymethoxyphenyl)-2-(4-sulfophenyl)-2H-tetrazolium, inner salt; MTS) System following the manufacture protocol.

HEK293 cells = assay: Cell proliferation assay (MTS); assay type: cell-based, human; details: for LD50 values, HEK293: MTS cell proliferation assay, 24 hrs, highest concentration 400 µg mL-1; for Minimal Lethal Dose, HEK 293: serial 2-fold dilutions (Table S6)
Description: as §1

HepG2 cells = assay: Cell proliferation assay (MTS); assay type: cell-based, human; details: for LD50 values, HepG2: MTS cell proliferation assay, 24 hrs, highest concentration 400 µg mL-1; for Minimal Lethal Dose, HepG2: serial 2-fold dilutions (Table S6)
Description: as §1

B. cereus ATCC11778 = assay: Micro-broth dilution and drop plate antimicrobial susceptibility test; assay type: cell-based, Bacillus cereus; details: for Relative Therapeutic Index (RTI), B. cereus NRRL 11778: minimal lethal dose / MIC, 800 μg mL-1 used for >400
Description: (§2) In a sterile 96-well plate, serial dilutions were made with the test substance to final volume of 50 μl. Inoculum was then prepared in Mueller-Hinton broth to 0.5 McFarland and diluted before adding 50 μl to the well to make ∼1x10^5 CFU/ml. The culture plate was incubated at 35 °C for 20-24 hrs. A positive growth control and sterility wells were also prepared along with the culture wells. Absorbance at OD600 was taken using BMG Labtech SPECTROstar Omega spectrophotometer. MIC is determined by the lowest concentration without growth. IC50 is determined from plotting a dose-response curve, see Data Analysis below. To determine the MBC, using a multi-channel pipette, 1 μl of culture broth was taken from the same 96-well microdilution growth plate and carefully inoculated on surface of MH agar plate. The plate is then incubated for additional 20 hrs. at 35 °C. The MBC value is the lowest concentration without observed growth on the agar.

E. coli ATCC25922 = assay: as above; assay type: cell-based; details: Escherichia coli
Description: as §2

P. aeruginosa ATCC27853 = assay: as above; assay type: cell-based; details: Pseudomonas aeruginosa
Description: as §2

S. aureus ATCC29219 = assay: as above; assay type: cell-based; details: Staphylococcus aureus
Description: as §2

B. subtilis EC1524 = assay: as above; assay type: cell-based, Bacillus subtilis; details: for IC50 / MBC / MIC: Bacillus subtilis; for Relative Therapeutic Index (RTI), B. subtilis EC1524: minimal lethal dose / MIC, 800 μg mL-1 used for >400
Description: as §2

DPAGT1 = target: T1, DPAGT1 (Homo sapiens, UniProt Q9H3H5); assay: Radiolabeled substrate enzyme activity assay; assay type: biochemical, H. sapiens; details: equimolar to Dol-P and UDP-GlcNAc
T1 construct: H. sapiens DPAGT1 (1-408, N-terminal 6 x HIS tag, TEV cleavage site); 6xHis purification tag with TEV site (N, cleaved yes); made in house; host or cells: Spodoptera frugiperda Sf9 insect cells (baculovirus)
T1 sequence (Q9H3H5 1-408): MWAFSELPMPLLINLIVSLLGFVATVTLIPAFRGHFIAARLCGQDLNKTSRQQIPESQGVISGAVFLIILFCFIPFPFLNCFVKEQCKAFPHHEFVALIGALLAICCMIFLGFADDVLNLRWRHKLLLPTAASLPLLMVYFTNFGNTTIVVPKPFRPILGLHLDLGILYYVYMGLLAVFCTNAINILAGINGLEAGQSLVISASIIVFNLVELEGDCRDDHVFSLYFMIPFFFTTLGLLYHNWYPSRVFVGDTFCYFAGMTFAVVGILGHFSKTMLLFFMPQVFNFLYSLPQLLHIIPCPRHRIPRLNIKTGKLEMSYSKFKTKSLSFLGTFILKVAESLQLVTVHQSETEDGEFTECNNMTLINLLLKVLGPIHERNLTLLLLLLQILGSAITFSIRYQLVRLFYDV
Description: 2 μl of 2 μM DPAGT1 WT or mutant proteins in GFB buffer supplemented with 5mM extra MgCl2, 1% OGNG/CHS/cardiolipin and dolichyl monophosphate was combined with 2 μl of UDP-N-acetyl [1-14C] […] The reaction was terminated by the addition of 6 μl of 100% methanol and immediately transferred onto ice. 1 μl of sample was spotted onto a silica coated TLC plate in triplicate and run with a mobile phase consisting of chloroform, methanol, and water at a 65:25:4 ratio respectively. After the run, the TLC plate was dried thoroughly, wrapped in cling film, incubated with a phosphor imaging substrate for 4 days, then phosphor imaged using a Biorad. The pixel density of the spots corresponding to the hydrophobic product was divided by combined pixel density of the product and the substrate and multiplied by the known concentration of substrate added to ascertain the amount of product formed.

[2] = read-out: 1-week MIC in 7H9/ADC/Tw
[3] = read-out: 1-week MIC in GAST/Fe
[4] = read-out: Minimal Inhibitory Concentration, Mtb H37RV a
[5] = read-out: Minimal Inhibitory Concentration, Mtb H37RV b
[6] = Bacillus cereus, ATCC 11778 / NRRL11778, read-out: Minimal Inhibitory Concentration, B. cereus NRRL 11778
[7] = EC1524, read-out: Minimal Inhibitory Concentration, B. subtilis EC1524

Compound	MIC (Mtb H37Rv ATCC27294; [2])	MIC (Mtb H37Rv ATCC27294; [3])	MIC (Mtb H37Rv ATCC27294; [4])	MIC (Mtb H37Rv ATCC27294; [5])	Relative Therapeutic Index (RTI), Mtb H37RV a (Mtb H37Rv ATCC27294)	Relative Therapeutic Index (RTI), Mtb H37RV b (Mtb H37Rv ATCC27294)	reduction of intracellular bacterial burdens ([1]; 1 × MIC)	reduction of intracellular bacterial burdens ([1]; 10 × MIC)	LD50 values, Raji (Raji cells)	LD50 values, HEK293 (HEK293 cells)	Minimal Lethal Dose, HEK 293 (HEK293 cells)	LD50 values, HepG2 (HepG2 cells)	Minimal Lethal Dose, HepG2 (HepG2 cells)	IC50 (B. cereus ATCC11778; Bacillus cereus, ATCC11778)	MBC (B. cereus ATCC11778; Bacillus cereus, ATCC11778)	MIC (B. cereus ATCC11778; Bacillus cereus, ATCC11778)	MIC (B. cereus ATCC11778; [6])	Relative Therapeutic Index (RTI), B. cereus NRRL 11778 (B. cereus ATCC11778)	IC50 (E. coli ATCC25922)	MBC (E. coli ATCC25922)	other results
CCCCCCCCCC(=O)N[C@H]1[C@H](O[C@H]2O[C@H](CO)[C@@H](O)[C@H](O)[C@H]2NC(=O)CCCCCCCCC)O[C@H](C[C@@H](O)[C@H]2O[C@@H](n3ccc(=O)[nH]c3=O)[C@H](O)[C@@H]2O)[C@H](O)[C@@H]1O [TUN-10,10, Di-N-decanoyl-tunicamycin]	1.2 ± 0.3 µg/mL (≈ 1.37 µM)	0.1 ± 0.1 µg/mL (≈ 0.114 µM)	1.2 µg/mL (≈ 1.37 µM)	0.1 µg/mL (≈ 0.114 µM)	667	8000	1 logs	2 logs	196.17 ± 47.61 µg/mL	N/A (N/A = not available. No or low cytotoxicity observed at highest, saturating concentration tested (400 µg mL-1))	> 400 µg/mL	N/A (N/A = not available. No or low cytotoxicity observed at highest, saturating concentration tested (400 µg mL-1))	> 400 µg/mL	0.046 µg/mL (≈ 0.0526 µM)	12.5 µg/mL (≈ 14.3 µM)	0.33 ± 0.11 µg/mL (≈ 0.377 µM)	0.39 µg/mL (≈ 0.446 µM)	2050	91.6 µg/mL (≈ 105 µM)	400 µg/mL (≈ 457 µM)	MIC (B. cereus ATCC11778; B. cereus, micro-broth dilution, mean ± SEM (n=3)): 0.33 ± 0.11 µg/mL (≈ 0.377 µM); MIC (E. coli ATCC25922): 330 ± 120 µg/mL (≈ 377 µM); IC50 (P. aeruginosa ATCC27853): 53.5 µg/mL (≈ 61.1 µM); MBC (P. aeruginosa ATCC27853): 400 µg/mL (≈ 457 µM); MIC (P. aeruginosa ATCC27853): 83 ± 29 µg/mL (≈ 94.9 µM); IC50 (S. aureus ATCC29219): 49.3 µg/mL (≈ 56.3 µM); MBC (S. aureus ATCC29219): 400 µg/mL (≈ 457 µM); MIC (S. aureus ATCC29219): 83 ± 29 µg/mL (≈ 94.9 µM); IC50 (B. subtilis EC1524; EC1524): 0.12 ± 0.04 µg/mL (≈ 0.137 µM); MBC (B. subtilis EC1524; EC1524): > 0.39 µg/mL; MIC (B. subtilis EC1524; EC1524): 0.33 ± 0.11 µg/mL (≈ 0.377 µM); MIC (B. subtilis EC1524; [7]): 0.39 µg/mL (≈ 0.446 µM); Relative Therapeutic Index (RTI), B. subtilis EC1524 (B. subtilis EC1524): 2050
CCCCCCCCCCC(=O)N[C@H]1[C@H](O[C@H]2O[C@H](CO)[C@@H](O)[C@H](O)[C@H]2NC(=O)CCCCCCCCCC)O[C@H](C[C@@H](O)[C@H]2O[C@@H](n3ccc(=O)[nH]c3=O)[C@H](O)[C@@H]2O)[C@H](O)[C@@H]1O [TUN-11,11, Di-N-undecanoyl-tunicamycin]	4.1 ± 2.2 µg/mL (≈ 4.54 µM)	1.6 ± 1.6 µg/mL (≈ 1.77 µM)	4.1 µg/mL (≈ 4.54 µM)	1.6 µg/mL (≈ 1.77 µM)	195	500	1 logs	2 logs	103.65 ± 34.34 µg/mL	N/A (N/A = not available. No or low cytotoxicity observed at highest, saturating concentration tested (400 µg mL-1))	> 400 µg/mL	N/A (N/A = not available. No or low cytotoxicity observed at highest, saturating concentration tested (400 µg mL-1))	> 400 µg/mL	0.088 µg/mL (≈ 0.0974 µM)	> 25 µg/mL	0.65 ± 0.23 µg/mL (≈ 0.72 µM)	0.78 µg/mL (≈ 0.864 µM)	1026	131 µg/mL (≈ 145 µM)	400 µg/mL (≈ 443 µM)	MIC (E. coli ATCC25922): 330 ± 120 µg/mL (≈ 365 µM); IC50 (P. aeruginosa ATCC27853): 63.2 µg/mL (≈ 69.9 µM); MBC (P. aeruginosa ATCC27853): 400 µg/mL (≈ 443 µM); MIC (P. aeruginosa ATCC27853): 83 ± 29 µg/mL (≈ 91.9 µM); IC50 (S. aureus ATCC29219): 58 µg/mL (≈ 64.3 µM); MBC (S. aureus ATCC29219): 400 µg/mL (≈ 443 µM); MIC (S. aureus ATCC29219): 170 ± 60 µg/mL (≈ 188 µM); IC50 (B. subtilis EC1524; EC1524): 0.85 ± 0.28 µg/mL (≈ 0.941 µM); MBC (B. subtilis EC1524; EC1524): > 1.56 µg/mL; MIC (B. subtilis EC1524; EC1524): 1.3 ± 0.45 µg/mL (≈ 1.44 µM); MIC (B. subtilis EC1524; [7]): 1.56 µg/mL (≈ 1.73 µM); Relative Therapeutic Index (RTI), B. subtilis EC1524 (B. subtilis EC1524): 513
N-Acetyl-1-[P’-(3Z,7Z,11Z,15Z,19Z,23Z,27Z,31E,35E,39E,43-undecamethyl-2,6,10,14,18,22,26,30,34,38,42-tetratetracontaundecaenyl) P,P'-dihydrogen diphosphate]-α-d-glucosamine diammonium salt [GlcNAc-PP-Und]																					reduction of DPAGT1 activity on adding product analogue (DPAGT1): 3 fold
